Results as given in patent publication US9150531B2, “Tricyclic lactones for treatment of cancer” (Glactone Pharma Development AB, priority 2010, dated 2015).

Tests used:
DU145 [1] = test: WST-1 proliferation assay, DU145 cells (Example 17); type: cell-based, human
Experimental: The human prostate cancer cell line DU145 was used. The cells were cultured in RPMI 1640 medium supplemented with 10% FBS and 1% penicillin-streptomycin. All cells were incubated at 37° C. in a humidified atmosphere of […] and 5% CO2.
WST-1 proliferation assay was performed to study the effects of the test items on the proliferation and viability of cultured prostate cancer cells. DU145 cells were cultured in 96-well plates at the density of 2 000 cells/well in 200 μl of medium. Cells were allowed to set for 24 h and 48 h. The cells were treated with 0.5, 1.0, 2.5, 5.0, 10, and 50 μM of the specific substance for 24 h and 48 h. Samples were made in triplicate. 20 μl WST-1 solution (Roche Applied Science, Mannheim, Germany) was added per well and incubated at 37° C. for 4 h. The absorbance of each well was measured using a scanning multiwell spectrophotometer, ELISA reader at a wavelength of 450 nm and reference wavelength of 690 nm. The results are presented as percent of untreated control cells or the absorbance value.

DU145 [2] = test: as above; type: cell-based, human; settings: 25.0 μM
LNCaP-IL6 cells = test: WST-1 proliferation assay, LNCaP-IL6 cells; type: cell-based, human
Experimental: (§1) The human prostate cancer cell lines DU145, LNCaP (from the American Type culture Collection, ATCC) and long-term interleukin-6 (IL-6) stimulated LNCaP cells (LNCaP-IL6 cells) (Hobisch, Ramoner et al. 2001) were used. The cells were cultured in RPMI 1640 medium supplemented with 10% FBS and 1% penicillin-streptomycin. All cells were incubated at 37° C. in a humidified atmosphere of […] and 5% CO2.
(§2) WST-1 proliferation assay was performed to study the effects of the test items on the proliferation and viability of cultured prostate cancer cells. LNCaP and DU145 cells were cultured in 96-well plates at the density of 2 000 cells/well in 200 μl of medium. Cells were allowed to set for 24 h. The cells were treated with 0, 2.5, 5 or 10 μM of the specific substance for 24 h and 48 h. Samples were made in triplicate. 20 μl WST-1 solution (Roche Applied Science, Mannheim, Germany) was added per well and incubated at 37° C. for 4 h. The absorbance of each well was measured using a scanning multiwell spectrophotometer, ELISA reader at a wavelength of 450 nm and reference wavelength of 690 nm. The results are presented as percent of untreated control cells or the absorbance value.

DU145 [3] = test: WST-1 proliferation assay, DU145 cells (Example 16); type: cell-based, human
Experimental: as §1, §2

[4] = tested on: STAT-3 transcription factor; test: STAT3 inhibition, luciferase reporter (4xM67 pTATA TK-Luc) in HeLa cells stimulated with γ-Interferon; type: cell-based; settings: Homo sapiens, γ-Interferon 8 h, luciferase activity, read-out: Anti STAT3 IC50
Experimental: HeLa cells (4×10^4/ml) were transiently transfected with a luciferase reporter plasmid (4×M67 pTATA TK-Luc) driven by artificial promoter containing 4 repeated M67 binding sites in tandem for the STAT-3 transcription factor. The transfections were performed for 24 h using Roti-Fect reagent (Carl Roth, Karlsruhe, Germany) according to the manufacturer's recommendations. After incubation with different concentrations of the extracts for 30 min the transfected cells were stimulated for 8 h with γ-Interferon. Then, the cells were lysed in 25 mM Tris-phosphate pH 7.8, 8 mM MgCl2, 1 mM DTT, 1% Triton X-100, and 7% glycerol. Luciferase activity was measured as described for 5.1 cells.
γ-Interferon induces an average of 5-6 fold induction of the luciferase activity compared to non stimulated cells and this represent the index of transactivation that is represented in our experiment as the maximum levels of γ-Interferon-induced STAT-3 activation (100%). Results below represent the IC50 for each compound in this assay. The IC50 means the concentration of each compound that reduces luciferase activity by 50% and it was calculated by GraphPad software.

Compound | Proliferation (vs control) Du145 (%) 24 h (DU145 [1]; 0.5 μM) | Proliferation (vs control) Du145 (%) 48 h (DU145 [1]; 0.5 μM) | Proliferation (vs control) Du145 (%) 24 h (DU145 [1]; 1.0 μM) | Proliferation (vs control) Du145 (%) 48 h (DU145 [1]; 1.0 μM) | Proliferation (vs control) Du145 (%) 24 h (DU145 [1]; 2.5 μM) | Proliferation (vs control) Du145 (%) 48 h (DU145 [1]; 2.5 μM) | Proliferation (vs control) Du145 (%) 24 h (DU145 [1]; 5.0 μM) | Proliferation (vs control) Du145 (%) 48 h (DU145 [1]; 5.0 μM) | Proliferation (vs control) Du145 (%) 24 h (DU145 [1]; 10.0 μM) | Proliferation (vs control) Du145 (%) 48 h (DU145 [1]; 10.0 μM) | Proliferation (vs control) Du145 (%) 24 h (DU145 [1]; 50.0 μM) | Proliferation (vs control) Du145 (%) 48 h (DU145 [1]; 50.0 μM) | Proliferation (vs control) Du145 (%) 24 h (DU145 [2]) | Proliferation (vs control) Du145 (%) 48 h (DU145 [2]) | further results
O=C1O[C@@H]2[C@H](Cc3ccccc3)C[C@@H]3CCC=C1[C@@]32O (stereo in doubt) [Example 6, 5,5a,6,7,7a,7b-hexahydro-7b-hydroxy-7-benzyl-indeno[1,7-bc]furan-2(4H)-one] | 110.14% | 121.11% | 98.76% | 120.77% | 104.13% | 101.61% | 81.25% | 78.86% | 43.88% | 42.70% | 23.59% | 9.88% | 45.01% | 23.80% | 
C[C@H]1C=C2C(=O)O[C@@H]3C[C@@H](c4ccccc4)[C@H](C1)[C@]23O (stereo in doubt) [Example 4, 5,5a,6,7,7a,7b-hexahydro-7b-hydroxy-4-methyl-6-phenyl-indeno[1,7-bc]furan-2(4H)-one] | 125.24% | 161.90% | 76.74% | 106.97% | 86.48% | 106.23% | 91.39% | 73.13% | 45.29% | 59.35% | 18.31% | 11.34% | 22.17% | 21.83% | 
COC(=O)C1=C[C@H](C)C[C@H]2C[C@@H](c3ccccc3)[C@@H]3O[C@]123 (stereo in doubt) [Example 8, methyl 5-methyl-2-phenyl-1a,2,3,3a,4,5-hexahydroindeno[1,7a-b]oxirene-7-carboxylate] |  |  |  |  |  |  |  |  |  |  |  |  |  |  | % Proliferation (vs control) 24 h LNCaP-IL6 (LNCaP-IL6 cells; 2.5 uM): 69.23%; % Proliferation (vs control) 48 h LNCaP-IL6 (LNCaP-IL6 cells; 2.5 uM): 48.79%; % Proliferation (vs control) 24 h LNCaP-IL6 (LNCaP-IL6 cells; 5 uM): 58.97%; % Proliferation (vs control) 48 h LNCaP-IL6 (LNCaP-IL6 cells; 5 uM): 20.28%; % Proliferation (vs control) 24 h LNCaP-IL6 (LNCaP-IL6 cells; 10 uM): 52.67%; % Proliferation (vs control) 48 h LNCaP-IL6 (LNCaP-IL6 cells; 10 uM): 18.81%; % Proliferation (vs control) 24 h DU145 (DU145 [3]; 2.5 uM): 80.94%; % Proliferation (vs control) 48 h Du145 (DU145 [3]; 2.5 uM): 63.59%; % Proliferation (vs control) 24 h DU145 (DU145 [3]; 5 uM): 58.19%; % Proliferation (vs control) 48 h Du145 (DU145 [3]; 5 uM): 27.29%; % Proliferation (vs control) 24 h DU145 (DU145 [3]; 10 uM): 48.49%; % Proliferation (vs control) 48 h Du145 (DU145 [3]; 10 uM): 19.98%; IC50 [4]: 750 nM
